Test results taken from ChEMBL document CHEMBL6078674, “Genome Mining of the Marine-Derived Fungus Trichoderma erinaceum F1-1 Unearths Bergamotene-Type Sesquiterpenoids” (J Nat Prod, 2024).

Experiments:
[1] = tested on: A549; experiment: Cytotoxicity against human A549 cells; format: functional, cell-based
[2] = tested on: Staphylococcus aureus; experiment: Antibacterial activity against methicillin-resistant Staphylococcus aureus; format: functional, organism-based
[3] = tested on: RAW264.7; experiment: Antiinflammatory activity in mouse RAW264.7 cells; format: functional, cell-based
[4] = tested on: RKO; experiment: Cytotoxicity against human RKO cells; format: functional, cell-based

Measured: IC50

CC(C)=CCC[C@]1(C)[C@@H]2C[C@H]1C(C)=C[C@H]2O[C@H]1O[C@H](CO)[C@@H](O)[C@H](O)[C@H]1O
> 50 µM: [1] | [2] | [3] | [4]

C/C(=C\CC[C@]1(C)[C@H]2CC(=O)[C@@H](C)[C@@H]1C2)CO
> 50 µM: [1] | [2] | [3] | [4]

C/C(=C\CC[C@]1(C)[C@H]2CC(=O)[C@](C)(O)[C@@H]1C2)CO
> 50 µM: [1] | [2] | [3] | [4]

CC(=O)[C@@H]1C[C@H](CC(=O)O)[C@@]1(C)CCC=C(C)C
> 50 µM: [1] | [2] | [3] | [4]

CC(C)=CCC[C@]1(C)[C@@H]2C[C@H]1[C@@](C)(O)C(=O)[C@H]2O
> 50 µM: [1] | [2] | [3] | [4]

CC(C)=CCC[C@]1(C)[C@@H]2C[C@H]1[C@@](C)(O)C(=O)C2=O
> 50 µM: [1] | [2] | [3] | [4]

CC(C)=CCC[C@]1(C)[C@H]2CC(=O)[C@](C)(O[C@H]3O[C@H](CO)[C@@H](O)[C@H](O)[C@H]3O)[C@@H]1C2
> 50 µM: [1] | [2] | [3] | [4]

C/C(=C\CC[C@]1(C)[C@H]2CC(=O)[C@](C)(O)[C@@H]1C2)C(=O)O
> 50 µM: [1] | [2] | [3] | [4]
